According to patent EP3325465B1, “PESTICIDALLY ACTIVE PYRAZOLE DERIVATIVES” (Syngenta Participations AG, priority 2015, dated 2017):
Read-outs that look alike come from different tables or passages of the source.

Tests used:
Type in all cases: in vivo
[1] = tested on: Myzus persicae (Green peach aphid); experiment: Myzus persicae sunflower leaf disc spray test; conditions: foliar, 144 h, read-out: mortality of Myzus persicae
Text: (§1) The pesticidal/insecticidal properties of the compounds according to embodiments 1 or 2 can be illustrated via the following tests: Spodoptera littoralis (Egyptian cotton leaf worm) • Cotton leaf discs were placed onto agar in 24-well microtiter plates and sprayed with aqueous test solutions prepared from 10'000 ppm DMSO stock solutions. After drying the leaf discs were infested with five L1 larvae. […] Plutella xylostella (Diamond back moth): 24-well microtiter plates with artificial diet were treated with aqueous test solutions prepared from 10'000 ppm DMSO stock solutions by pipetting. After drying, the plates were infested with L2 larvae (10 to 15 per well). The samples were assessed for mortality and growth inhibition in comparison to untreated samples 5 days after infestation. […] Diabrotica balteata, (Corn root worm) • Maize sprouts placed onto an agar layer in 24-well microtiter plates were treated with aqueous test solutions prepared from 10'000 ppm DMSO stock solutions by spraying. After drying, the plates were infested with L2 larvae (6 to 10 per well). […] Thrips tabaci (Onion thrips): Sunflower leaf discs were placed on agar in 24-well microtiter plates and sprayed with aqueous test solutions prepared from 10'000 ppm DMSO stock solutions. After drying the leaf discs were infested with a thrips population of mixed ages. The samples were assessed for mortality 6 days after infestation. […] Tetranychus urticae (Two-spotted spider mite): Bean leaf discs on agar in 24-well microtiter plates were sprayed with aqueous test solutions prepared from 10'000 ppm DMSO stock solutions. After drying the leaf discs were infested with a mite population of mixed ages. The samples were assessed for mortality on mixed population (mobile stages) 8 days after infestation. […] Euschistus heros (Neotropical Brown Stink Bug): • Two weeks old soybean plants were sprayed in a turn table spray chamber with the diluted spray solutions. After drying 2 soybean seeds were added and plants were infested with 10 N2 nymphs of the neotropical brown stink bug Euschistus heros in plastic test boxes. The samples were assessed for mortality in comparison to untreated samples 5 days after infestation. • The following compounds gave at least 80% mortality of Euschistus heros at an application rate of 12.5 ppm: Compounds 3 , 4 , 8 , 39 , 43 , 44 , 46 , 75 , 76 , 77 , 78 , 79 , 80 , 81 , 82 , 88 , 90 , 93 and 95 . Myzus persicae (Green peach aphid): Sunflower leaf discs were placed on agar in a 24-well microtiter plate and sprayed with test solutions at an application rate of 200 ppm. After drying, the leaf discs were infested with an aphid population of mixed ages. After an incubation period of 6 DAT, samples were checked for mortality. The following compounds gave at least 50% mortality of Myzus persicae: Compounds 3 , 4 , 8 , 43 , 44 , 75 , 76 , 77 , 80 , 81 , 90 and 92 . Myzus persicae (Green peach aphid): • Test compounds were applied by pipette into 24 well plates and mixed with Sucrose solution. Application rate: 12.5ppm. The plates were closed with a stretched parafilm. A plastic stencil with 24 holes is placed onto the plate and infested pea seedlings were placed directly on the Parafilm. The infested plate is closed with a gel blotting paper and another plastic stencil and then turned upside down. […]

[2] = tested on: Diabrotica balteata, (Corn root worm); experiment: Diabrotica balteata maize sprout spray test, L2 larvae; conditions: 96 h
Text: as §1

[3] = tested on: Euschistus heros (Neotropical Brown Stink Bug); experiment: Euschistus heros soybean plant spray test, N2 nymphs; conditions: 120 h, read-out: mortality of Euschistus heros
Text: as §1

[4] = tested on: Thrips tabaci (Onion thrips); experiment: Thrips tabaci sunflower leaf disc spray test; conditions: foliar, 144 h, application rate of 200 ppm, mortality 6 days after infestation, mixed ages
Text: as §1

[5] = tested on: Plutella xylostella (Diamond back moth); experiment: Plutella xylostella artificial diet test, L2 larvae; conditions: 120 h, application rate of 200 ppm, mortality and growth inhibition 5 days after infestation
Text: as §1

[6] = tested on: Myzus persicae (Green peach aphid); experiment: Myzus persicae sucrose solution / Parafilm feeding test; conditions: 120 h, read-out: mortality of Myzus persicae
Text: as §1

[7] = tested on: Tetranychus urticae (Two-spotted spider mite); experiment: Tetranychus urticae bean leaf disc spray test; conditions: foliar, 192 h, application rate of 200 ppm, mortality on mixed population (mobile stages) 8 days after infestation
Text: as §1

[8] = tested on: Spodoptera littoralis (Egyptian cotton leaf worm); experiment: Spodoptera littoralis cotton leaf disc spray test, L1 larvae; conditions: foliar, 72 h
Text: as §1

[9] = application rate of 200 ppm, leaf disc spray, 6 DAT
[10] = application rate of 200 ppm, 4 days after infestation, L2 larvae, read-out: mortality
[11] = application rate of 12.5 ppm, 5 days after infestation, N2 nymphs
[12] = application rate of 200 ppm, 3 days after infestation, L1 larvae, read-out: mortality
[13] = Application rate: 12.5ppm, sucrose solution, 5 days after infestation

Compound | mortality at 200 ppm [1] | mortality at 200 ppm [2] | mortality at 12.5 ppm [3] | pest or weed control at 200 ppm [4] | pest or weed control at 200 ppm [5] | mortality at 12.5 ppm [6] | pest or weed control at 200 ppm [7] | mortality at 200 ppm [8] | mortality at 200 ppm [1, 9] | mortality at 200 ppm [2, 10] | mortality at 12.5 ppm [3, 11] | mortality at 200 ppm [8, 12] | mortality at 12.5 ppm [6, 13]
Cn1nc(C(F)(F)C(F)(F)F)c(C(F)(F)F)c1-c1cc(-c2ccc(Cl)c(C(=O)NC3(C#N)CC3)c2)no1 [Compound 3, 2-chloro-N-(1-cyanocyclopropyl)-5-[5-[2-methyl-5-(1,1,2,2,2-pentafluoroethyl)-4-(trifluoromethyl)pyrazol-3-yl]isoxazol-3-yl]benzamide] | ≥ 50% | ≥ 80% | ≥ 80% | ≥ 80% | ≥ 80% | ≥ 50% | ≥ 80% | ≥ 80% |  |  |  |  | 
Cn1nc(C(F)(F)C(F)(F)F)c(C(F)(F)F)c1-c1cc(-c2ccc(Cl)c(C(=O)NC3CC3)c2)on1 [Compound 8, 2-chloro-N-cyclopropyl-5-[3-[2-methyl-5-(1,1,2,2,2-pentafluoroethyl)-4-(trifluoromethyl)pyrazol-3-yl]isoxazol-5-yl]benzamide] |  |  |  | ≥ 80% | ≥ 80% |  | ≥ 80% |  | ≥ 50% | ≥ 80% | ≥ 80% | ≥ 80% | 
Cn1nc(-c2ccc(Cl)c(C(=O)NC3CC3)c2)cc1-c1c(C(F)(F)F)c(C(F)(F)C(F)(F)F)nn1C [Compound 39, 2-chloro-N-cyclopropyl-5-[1-methyl-5-[2-methyl-5-(1,1,2,2,2-pentafluoroethyl)-4-(trifluoromethyl)pyrazol-3-yl]pyrazol-3-yl]benzamide] |  |  |  | ≥ 80% | ≥ 80% |  | ≥ 80% |  |  | ≥ 80% | ≥ 80% | ≥ 80% | ≥ 80%
Cn1nc(C(F)(F)C(F)(F)F)c(C(F)(F)F)c1-c1cc(-c2ccc(Cl)c(C(=O)NC3CC3)c2)sn1 [Compound 43, 2-chloro-N-cyclopropyl-5-[3-[2-methyl-5-(1,1,2,2,2-pentafluoroethyl)-4-(trifluoromethyl)pyrazol-3-yl]isothiazol-5-yl]benzamide] |  |  |  | ≥ 80% | ≥ 80% |  | ≥ 80% |  | ≥ 50% | ≥ 80% | ≥ 80% | ≥ 80% | ≥ 80%
Cn1nc(C(F)(F)C(F)(F)F)c(C(F)(F)F)c1-c1cc(-c2ccc(Cl)c(C(=O)NC3(C(=O)O)CC3)c2)on1 [Compound 75, 1-[[2-chloro-5-[3-[2-methyl-5-(1,1,2,2,2-pentafluoroethyl)-4-(trifluoromethyl)pyrazol-3-yl]isoxazol-5-yl]benzoyl]amino]cyclopropanecarboxylic acid] |  |  |  | ≥ 80% |  |  |  |  | ≥ 50% | ≥ 80% | ≥ 80% |  | ≥ 80%
Cn1nc(C(F)(F)C(F)(F)F)c(C(F)(F)F)c1-c1cc(-c2ccc(Cl)c(C(=O)NC3(C(N)=S)CC3)c2)on1 [Compound 76, N-(1-carbamothioylcyclopropyl)-2-chloro-5-[3-[2-methyl-5-(1,1,2,2,2-pentafluoroethyl)-4-(trifluoromethyl)pyrazol-3-yl]isoxazol-5-yl]benzamide] |  |  |  | ≥ 80% | ≥ 80% |  | ≥ 80% |  | ≥ 50% | ≥ 80% | ≥ 80% | ≥ 80% | ≥ 80%
Cn1nc(C(F)(F)C(F)(F)F)c(C(F)(F)F)c1-c1cc(-c2ccc(Cl)c(C(=O)NC3(C(N)=O)CC3)c2)on1 [Compound 77, N-(1-carbamoylcyclopropyl)-2-chloro-5-[3-[2-methyl-5-(1,1,2,2,2-pentafluoroethyl)-4-(trifluoromethyl)pyrazol-3-yl]isoxazol-5-yl]benzamide] |  |  |  | ≥ 80% | ≥ 80% |  | ≥ 80% |  | ≥ 50% |  | ≥ 80% | ≥ 80% | ≥ 80%
Cn1nc(C(F)(F)C(F)(F)F)c(C(F)(F)F)c1-c1cc(-c2ccc(Cl)c(C(=O)N[C@H]3C[C@@H]3C(F)(F)F)c2)on1 [Compound 80, 2-chloro-5-[3-[2-methyl-5-(1,1,2,2,2-pentafluoroethyl)-4-(trifluoromethyl)pyrazol-3-yl]isoxazol-5-yl]-N-[(1S,2S)-2-(trifluoromethyl)cyclopropyl]benzamide] |  |  |  | ≥ 80% | ≥ 80% |  | ≥ 80% |  | ≥ 50% | ≥ 80% | ≥ 80% | ≥ 80% | 
Cn1nc(C(F)(F)C(F)(F)F)c(C(F)(F)F)c1-c1cc(-c2ccc(Cl)c(C(=O)NC3CC3F)c2)on1 (centres unmarked) [Compound 81, 2-chloro-N-(2-fluorocyclopropyl)-5-[3-[2-methyl-5-(1,1,2,2,2-pentafluoroethyl)-4-(trifluoromethyl)pyrazol-3-yl]isoxazol-5-yl]benzamide] |  |  |  | ≥ 80% | ≥ 80% |  | ≥ 80% |  | ≥ 50% | ≥ 80% | ≥ 80% | ≥ 80% | ≥ 80%
CCNC(=O)c1cc(-c2cc(-c3c(C(F)(F)F)c(C(F)(F)C(F)(F)F)nn3C)no2)ccc1Cl [Compound 90, 2-chloro-N-ethyl-5-[3-[2-methyl-5-(1,1,2,2,2-pentafluoroethyl)-4-(trifluoromethyl)pyrazol-3-yl]isoxazol-5-yl]benzamide] |  |  |  | ≥ 80% | ≥ 80% |  | ≥ 80% |  | ≥ 50% | ≥ 80% | ≥ 80% | ≥ 80% | 
CNC(=O)c1cc(-c2cc(-c3c(C(F)(F)F)c(C(F)(F)C(F)(F)F)nn3C)no2)ccc1Cl [Compound 92, 2-chloro-N-methyl-5-[3-[2-methyl-5-(1,1,2,2,2-pentafluoroethyl)-4-(trifluoromethyl)pyrazol-3-yl]isoxazol-5-yl]benzamide] |  |  |  | ≥ 80% | ≥ 80% |  | ≥ 80% |  | ≥ 50% | ≥ 80% |  | ≥ 80% | ≥ 80%
CC(C)NC(=O)c1cc(-c2cc(-c3c(C(F)(F)F)c(C(F)(F)C(F)(F)F)nn3C)no2)ccc1Cl [Compound 93, 2-chloro-N-isopropyl-5-[3-[2-methyl-5-(1,1,2,2,2-pentafluoroethyl)-4-(trifluoromethyl)pyrazol-3-yl]isoxazol-5-yl]benzamide] |  |  |  | ≥ 80% | ≥ 80% |  | ≥ 80% |  |  | ≥ 80% | ≥ 80% | ≥ 80% | ≥ 80%
